Experimental data reported in PubChem BioAssay (NCI).
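Values below derive from 48-hour exposures of cells grown in 96-well plates, with endpoints linearly interpolated between the two concentrations bracketing the appropriate inhibition level. TGI denotes the concentration required for complete inhibition of growth.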

How the values were obtained:
Assay in all cases: inhibition of tumour cell growth, NCI panel, 48 h
[1] = tested on: SNB-19 CNS
[2] = tested on: NCI-H226 lung
[3] = tested on: CCRF-CEM leukemia
[4] = tested on: NCI-H23 lung
[5] = tested on: HOP-92 NSCLC
[6] = tested on: CAKI-1 renal
[7] = tested on: UACC-257 melanoma
[8] = tested on: A549 NSCLC
[9] = tested on: HCC-2998 colon
[10] = tested on: 786-0 renal
[11] = tested on: MDA-MB-435
[12] = tested on: HCT-15 colon
[13] = tested on: TK-10 renal
[14] = tested on: UACC-62 melanoma
[15] = tested on: MALME-3M melanoma
[16] = tested on: HT29 colon
[17] = tested on: ACHN renal
[18] = tested on: SK-OV-3 ovarian
[19] = tested on: SNB-75 CNS
[20] = tested on: SR leukemia

Structure (SMILES)	TGI [1]	TGI [2]	TGI [3]	TGI [4]	TGI [5]	TGI [6]	TGI [7]	TGI [8]	TGI [9]	TGI [10]	TGI [11]	TGI [12]	TGI [13]	TGI [14]	TGI [15]	TGI [16]	TGI [17]	TGI [18]	TGI [19]	TGI [20]
CC(C)(C)C1CCC2c3c([nH]c4ccccc34)C3C(=O)N(c4cc(Cl)ccc4Cl)C(=O)C3C2C1 (stereo not drawn)	> 100 µM	> 100 µM	> 100 µM	> 100 µM	> 100 µM	> 100 µM	> 100 µM	> 100 µM	> 100 µM	> 100 µM	> 100 µM	> 100 µM	> 100 µM	> 100 µM	> 100 µM	> 100 µM	> 100 µM	> 100 µM		
CCOC(=O)C(CCSC)(CCSC)C(=O)OCC	> 100 µM	> 100 µM	> 100 µM	> 100 µM		> 100 µM	> 100 µM	> 100 µM	> 100 µM	> 100 µM	> 100 µM	> 100 µM	> 100 µM	49.1 µM	> 100 µM	> 100 µM	> 100 µM	72.2 µM	> 100 µM	
N#Cc1c2c(c(Nc3cccc(C(F)(F)F)c3)n3c1nc1ccccc13)CCCC2		63.2 µM		89.2 µM	22.5 µM	82.4 µM	> 100 µM			27.9 µM	> 100 µM	> 100 µM	44.4 µM		85.7 µM	56.4 µM	> 100 µM	48 µM	57.3 µM	
CC(=O)c1sc2c(c1OC(=O)c1ccccc1)c(=O)n(-c1ccccc1)c(=S)n2-c1ccccc1	> 47.8 µM	8.33 µM	5.83 µM	> 71.9 µM	5.94 µM	> 26.4 µM	> 23.9 µM	> 100 µM	45.4 µM	17.9 µM	28.9 µM	62.9 µM	> 86.9 µM	32.8 µM	5.92 µM	12.9 µM	12.6 µM	> 49.9 µM	28.6 µM	
CC(C)(Cl)C(Cl)CC/C(CBr)=C(\Cl)CBr (stereo not drawn)	29.2 µM	5.28 µM	0.325 µM	3.77 µM	3.63 µM	7.08 µM	5.09 µM	30.3 µM	21.6 µM	2.68 µM	5.34 µM	3.51 µM	3.82 µM	3.33 µM	4.83 µM	25 µM	13.9 µM	13.5 µM	4.85 µM	
Cc1nnc(N)nc1C/C=C/C(C)Sc1ccc(Cl)cc1 (stereo not drawn)	> 51 µM	7.69 µM	26.4 µM	36 µM	68.8 µM	33.9 µM	30.8 µM	58.6 µM	31.3 µM	33.1 µM	> 50.8 µM	> 54.1 µM	35.9 µM	17.8 µM	33.7 µM	43.8 µM	29 µM	21.9 µM	19.2 µM	
Clc1ccc2c(c1)CC1C[N+]3=C(CCCCC3)C1=C2 (stereo not drawn)	> 100 µM	> 100 µM	> 100 µM	> 100 µM	95.2 µM	> 100 µM	94.1 µM	> 100 µM		> 100 µM	> 100 µM	> 100 µM	> 100 µM	> 100 µM	> 100 µM	> 100 µM	> 100 µM	> 100 µM	4.56 µM	
Cc1cnc2c(c1)C(=O)N(c1ccc(Br)cc1)S2(=O)=O	> 100 µM	> 100 µM	> 100 µM	> 100 µM		> 100 µM	> 100 µM	> 100 µM	> 100 µM	> 100 µM	> 100 µM	> 100 µM	> 100 µM	> 100 µM	> 100 µM	> 100 µM	> 100 µM	> 100 µM	> 100 µM	
Cc1cc2nc3c(C#N)c4c(c(Cl)n3c2cc1C)CCC4		> 100 µM		62.6 µM	95.5 µM	35.9 µM	> 100 µM			29.5 µM	42.5 µM	37.1 µM	70.6 µM		> 100 µM		55.9 µM	> 100 µM	> 100 µM	
CCCc1cn2c(/C=N/N=C(N)N)c(-c3ccc([N+](=O)[O-])cc3)nc2s1	2.9 µM	3.33 µM	1.3 µM	2.82 µM	74 µM	3.1 µM	3.03 µM	2.91 µM	2.03 µM	1.97 µM	3.1 µM	2.3 µM	3.93 µM	3.35 µM	3.86 µM	> 100 µM	2.88 µM	2.92 µM		
O=C(/C=C/c1ccc(Cl)cc1)c1nc2ccccc2[nH]1	> 100 µM	> 100 µM	16.6 µM	> 100 µM	> 100 µM	10.1 µM	> 100 µM	> 100 µM	25.8 µM	29.6 µM	36.2 µM	61.4 µM	70.5 µM	> 100 µM	> 100 µM	63.4 µM	> 100 µM	> 100 µM	43.8 µM	
CCOC(=O)NC(C(F)(F)F)(C(F)(F)F)P(=O)(OCC)OCC	> 100 µM	> 100 µM	> 100 µM	> 100 µM	> 100 µM				> 100 µM	> 100 µM	> 100 µM	> 100 µM	> 100 µM	> 100 µM	> 100 µM	> 100 µM	> 100 µM	> 100 µM	> 100 µM	
O=C(NCCCN1CCN(CCCNC(=O)c2cc(-c3ccccc3)nc3ccccc23)CC1)c1cc(-c2ccccc2)nc2ccccc12	33 µM	> 65.3 µM	> 56.4 µM	> 100 µM	28.5 µM	20.8 µM	5.45 µM	48.7 µM	6.06 µM	21.5 µM	14.7 µM	> 100 µM	60.2 µM	37.5 µM	3.21 µM	> 39.7 µM	28.8 µM	40.2 µM	> 52.6 µM	
CCCC1(N2C(=O)c3ccc4c5c(ccc(c35)C2=O)N(C2(CCC)CCCCC2)C4=O)CCCCC1	> 100 µM			> 100 µM	> 100 µM	> 100 µM		> 100 µM	> 100 µM	> 100 µM	> 100 µM	> 100 µM	> 100 µM	> 100 µM	> 100 µM	> 100 µM	> 100 µM	> 100 µM		
COc1cc2cnc3c4cc(O)ccc4ccc3c2cc1OC	> 100 µM	> 100 µM	> 100 µM	> 100 µM	> 100 µM	> 100 µM	> 100 µM	> 100 µM	> 100 µM	> 100 µM		> 100 µM	> 100 µM	> 100 µM	> 100 µM	> 100 µM	> 100 µM	> 100 µM	> 100 µM	> 100 µM
COc1ccccc1NC(=O)C(=O)C(c1cnc2ccc([N+](=O)[O-])cc2n1)[N+](=O)[O-] (stereo not drawn)	> 100 µM	> 100 µM	> 100 µM	> 100 µM	> 100 µM	> 100 µM	> 100 µM	> 100 µM	> 100 µM	> 100 µM		> 100 µM	> 100 µM	> 100 µM	> 100 µM	> 100 µM	> 100 µM	> 100 µM	> 100 µM	> 100 µM
Cc1cc(N(CCC#N)CCC#N)ccc1/C=C(\N=[N+]=[N-])C(=O)NC(=O)COc1ccccc1	> 100 µM	> 100 µM	> 100 µM	> 100 µM	> 100 µM	> 100 µM	> 100 µM	> 100 µM	> 100 µM	> 100 µM		> 100 µM	> 100 µM	> 100 µM	> 100 µM	> 100 µM	> 100 µM	> 100 µM	> 67.2 µM	> 100 µM
Cc1ccc2nc(-c3nccn3C)cc(C(=O)NC(C)CN(C)C)c2c1 (stereo not drawn)	> 100 µM	> 100 µM		> 100 µM	> 100 µM	> 100 µM	> 100 µM	> 100 µM		> 100 µM	> 100 µM	> 100 µM	> 100 µM	> 100 µM	> 100 µM	> 100 µM	> 100 µM		> 100 µM	
O=C1NC(NNc2ccccc2)=N/C1=C\c1ccco1	> 100 µM		> 100 µM	45.9 µM	30.6 µM	30.6 µM	63.5 µM	> 100 µM	33 µM	40.2 µM	47.6 µM	33 µM	36.4 µM	17.3 µM	81.6 µM	52.3 µM	25.9 µM	> 100 µM	> 100 µM	
COc1ccc(OC)c(CCc2ccccc2CC(=O)O)c1	> 100 µM	> 100 µM	> 100 µM	> 100 µM	> 100 µM	> 100 µM	> 100 µM	> 100 µM	> 100 µM	> 100 µM		> 100 µM	> 100 µM	> 100 µM	> 100 µM	> 100 µM	> 100 µM	> 100 µM	> 100 µM	> 100 µM
